ChEMBL document CHEMBL1138072, “Critical modifications of the ISO-1 scaffold improve its potent inhibition of macrophage migration inhibitory factor (MIF) tautomerase activity” (Bioorg Med Chem Lett, 2006)

What follows are molecules tested against T1, Macrophage migration inhibitory factor (Homo sapiens, UniProt P14174) (assay: Inhibition of MIF tautomerase activity).
T1 sequence (P14174 whole entry): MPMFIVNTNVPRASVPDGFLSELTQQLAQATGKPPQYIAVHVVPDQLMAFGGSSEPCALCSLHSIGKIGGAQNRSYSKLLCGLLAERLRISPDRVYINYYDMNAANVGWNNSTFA

CC(C)(C)c1ccc(OC(=O)CC2CC(c3ccc(O)cc3)=NO2)cc1 (stereo unspecified) and COc1ccc(OC(=O)CC2CC(c3ccc(O)cc3)=NO2)cc1 (stereo unspecified) are within 1.5-fold of each other in IC50: 10 µM for the first, 8.5 µM for the second.

First: O=C(CC1CC(c2ccc(O)cc2)=NO1)OC1CCCCC1 (stereo unspecified)
Second: O=C(CC1CC(c2ccc(O)cc2)=NO1)OCC1CCCCC1 (stereo unspecified)
The IC50 of the first is 2-fold lower: 2.5 µM for the first, 5 µM for the second. The first is the more potent here.

Going from COC(=O)CC1CC(c2ccc(O)c(F)c2)=NO1 (stereo unspecified) to CCOC(=O)CC1CC(c2ccc(O)cc2)=NO1 (stereo unspecified), the IC50 rises from 6.5 µM to 12 µM (1.8-fold). The first is the more potent here.

Compared with NCCCCNC(=O)CC1CC(c2ccc(O)cc2)=NO1 (stereo unspecified), CC(C)(C)OC(=O)NCCCCNC(=O)CC1CC(c2ccc(O)cc2)=NO1 (stereo unspecified) is lower in IC50: over 100 µM for the first, 8.5 µM for the second.

CCCCOC(=O)CC1CC(c2ccc(O)cc2)=NO1 (stereo unspecified) and CCCOC(=O)CC1CC(c2ccc(O)cc2)=NO1 (stereo unspecified) are within 1.5-fold of each other in IC50: 3 µM for the first, 4 µM for the second.

First: CC(C)(C)COC(=O)CC1CC(c2ccc(O)cc2)=NO1 (stereo unspecified)
Second: CC(C)OC(=O)CC1CC(c2ccc(O)cc2)=NO1 (stereo unspecified)
The IC50 of the first is 4-fold lower: 1.5 µM for the first, 6 µM for the second. The first is the more potent here.

O=C(CC1CC(c2ccc(O)cc2)=NO1)NC1CCCCC1 (stereo unspecified) and COc1ccc(NC(=O)CC2CC(c3ccc(O)cc3)=NO2)cc1 (stereo unspecified) are within 1.5-fold of each other in IC50: 24 µM for the first, 26 µM for the second.

First: Cc1cc(C)c(OC(=O)CC2CC(c3ccc(O)cc3)=NO2)c(C)c1 (stereo unspecified)
Second: O=C(CC1CC(c2ccc(O)cc2)=NO1)Oc1ccccc1 (stereo unspecified)
The IC50 of the first is 2-fold higher: 20 µM for the first, 10 µM for the second. The second is the more potent here.
